Values of other authors in patent US7251609B1, “Method for conducting clinical trials over the internet” (The Trustees of Boston University, priority 1999, dated 2007).

Tested on: patients with knee OA

For Cl.N[C@H]1C(O)O[C@H](CO)[C@@H](O)[C@@H]1O (stereo partly drawn) [glucosamine hydrochloride], the major adverse events (94 patients with knee OA) is given as “No major adverse events”, the “rate of minor adverse symptoms” value (94 patients with knee OA, identical rate in glucosamine and placebo groups) is given as 12% and the efficacy (study of Houpt et al, knee OA) is given as “only modest efficacy”.
